Marks after values point to notes of the source that are not given here.
Key:
[1] = system: papain-induced OA model in rabbit; test: GAG content in knee joint cartilage, papain-induced OA model in rabbit (azure A method); assay type: in vivo; parameters: unit not given here; conditions: n = 6, x ± s
Procedure: (§1) 30 rabbits were randomly divided into five groups, i.e., normal control group; normal saline (NS) injection group; hyaluronic acid (HA) oral administration group; hyaluronic acid (HA) injection group; and hyaluronic acid-phospholipid complex (HA-PL, the complex of Preparation Example 2) oral administration group.
(§2) Using the papain-induced OA model in rabbit, the latter four groups of rabbits received injection of 0.1 ml of a papain solution (1.8 mg papain and 50 mg cysteine hydrochloride in 1 ml normal saline, sterile filtered through a 0.22 μm filter membrane) into the right knee articular cavity. A second injection was performed 3 days later.
Starting on Day 7 post-modeling, the rabbits were dosed. […] For oral administration, the respective agent was given intragastrically every day, at a dosage 40 mg/kg body weight, calculated as hyaluronic acid, in a volume of 1 ml/100 g body weight, for 2 weeks.
(§3) After completion of the administration, synovial fluid was aspirated, and the rabbits were sacrificed. […] The total amount of GAG in the cartilage was determined by the azure A method, and the level of HA in the synovial fluid was determined using an HA RIA kit.
The content of GAG in samples from each group was expressed as the amount contained in every 1 mg wet weight of the cartilage ( x±s), and was analyzed by t-test for significance test.

[2] = system: papain-induced OA model in rabbit; test: HA content in knee joint synovial fluid, papain-induced OA model in rabbit (HA RIA kit); assay type: in vivo; conditions: n = 6, x ± s
Procedure: as §1, §2
Starting on Day 7 post-modeling, the rabbits were dosed. For administration by injection into joint cavity, a injection volume of 0.3 ml, and a hyaluronic acid concentration of 10 mg/ml were used, once every five days for a total of 3 injections during the test. For oral administration, the respective agent was given intragastrically every day, at a dosage 40 mg/kg body weight, calculated as hyaluronic acid, in a volume of 1 ml/100 g body weight, for 2 weeks.
as §3

[3] = injection into joint cavity, 0.3 ml of 10 mg/ml, once every five days, 3 injections
[4] = oral (intragastric) daily, 40 mg/kg calculated as hyaluronic acid, 2 weeks

hyaluronic acid [HA]
GAG Content in knee joint cartilages [1, 3]: 29.9 ± 4.4^1),2) ng · ml^−1
GAG Content in knee joint cartilages [1, 4]: 23.3 ± 4.2
HA content in knee joint synovial fluid [2, 3]: 4.64 ± 0.51^1) mg · ml^−1
HA content in knee joint synovial fluid [2, 4]: 4.65 ± 0.54^1) mg · ml^−1
